Results taken from PubChem BioAssay AID489032 (Sanford-Burnham Center for Chemical Genomics, 2010).
pEC50: −log10 of the molar value. Calls of active or inactive are those of the source. No rule for the calls is given here.

System: UPR adaptive arm reporter cells, luciferase luminescence
Assay: adaptive unfolded protein response reporter activation – cell-based, luciferase luminescence, dose response (AID 489032)

Row | SMILES | EC50 | pEC50
1 | CCOC(=O)/C(=C\c1ccccc1)C(=O)c1cc(C(C)=O)c(Nc2ccccc2)s1 | > 80 µM (inactive) | 
2 | Cc1[nH]c2ccccc2c1/C=C/c1nc2ccccc2c(=O)n1-c1ccc([N+](=O)[O-])cc1 | > 80 µM (inactive) | 
3 | O=C(N/N=C/c1ccc(Cl)cc1)c1sccc1OCc1ccc(F)cc1 | 49.3 µM (inactive) | 
4 | Cc1cccc2sc(NC(=O)c3cc(S(=O)(=O)N(C)C)ccc3N3CCCC3)nc12 |  | 5.01
5 | COC(=O)Cc1csc(/N=C/c2c(O)n(-c3cccc(C(F)(F)F)c3)c(=O)c3ccccc23)n1 | > 80 µM (inactive) | 
6 | CCOc1ccc(-c2nnc(SCC(=O)Nc3ccc4c(c3)c3ccccc3n4CC)n2N)cc1 | > 80 µM (inactive) | 
7 | CC(C)N=C(NS(=O)(=O)c1ccccc1)C(Cl)(Cl)Cl | > 80 µM (inactive) | 
8 | Cc1ccc(Cn2c(=O)n(-c3ccccc3)c(=O)c3ccc(C(=O)NCc4ccco4)cc32)cc1 | > 80 µM (inactive) | 
9 | COc1cccc(C(=O)Oc2cc3c4c(c2)C(C)=CC(C)(C)N4C(=O)C3=O)c1 |  | 4.71
10 | C#CCOCCOCCOCCNc1nc(N2CCN(C(=O)CCCCCCCCCCNC(=O)[C@H](CCCCN)n3cc(C[C@@H](C)CC)nn3)CC2)nc(N2CCN(C(=O)CCCCCCCCCCNC(=O)[C@H](CCCN=C(N)N)n3cc(C[C@@H](C)CC)nn3)CC2)n1 | > 80 µM (inactive) | 
11 | O=C(COc1ccc(Cl)cc1Cl)NN=C1c2ccccc2-c2ccccc21 | > 80 µM (inactive) | 
12 | CCOC(=O)c1nn(-c2ccc(OCC)cc2)c2nc(-c3ccco3)c(C#N)c(=O)n12 | 58.9 µM (inactive) | 
13 | CC1(C)C=Cc2c(c3c(c4c(=O)c(-c5ccc(O)cc5)coc24)OC(C)(C)CC3)O1 | > 80 µM (inactive) | 
14 | COc1ccc(N2CCN(Cc3cc(=O)oc4cc(-c5ccccc5)c(O)cc34)CC2)cc1 | > 80 µM (inactive) | 
15 | COc1ccc(C(CCNC(C)c2ccccc2)c2ccc(F)cc2)cc1 (stereo not given) | > 80 µM (inactive) | 
16 | COc1cccc2sc(N3CCN(c4nc5ccccc5s4)CC3)nc12 | > 80 µM (inactive) | 
17 | COc1cc(/C=C/c2ccc3cccc(O)c3n2)ccc1O | > 80 µM (inactive) | 
18 | Cc1cccc2cc(C(c3nnnn3Cc3ccccc3)N3CCCc4ccccc43)c(=O)[nH]c12 (stereo not given) | 32.5 µM (inactive) | 
19 | Cn1nc(C(F)(F)F)c(/C=N/OC(=O)c2ccccc2)c1SCc1ccc(Cl)cc1 | 35.5 µM (inactive) | 
20 | C/C(=N/NC(=O)c1ccc(C)s1)c1cccc(NC(=O)COc2ccc(Cl)cc2C)c1 | 72.4 µM (inactive) | 
21 | CN(C)S(=O)(=O)c1ccc(N2CCCC2)c(C(=O)Nc2nc3ccccc3s2)c1 |  | 4.80
22 | CCCCCCCCCCOC(=O)Cn1c(COc2ccccc2C)[n+](C)c2ccccc21 | > 80 µM (inactive) | 
23 | O=[N+]([O-])c1cccc(/C=C/c2ccc3cccc(O)c3n2)c1 | 28.7 µM (inactive) | 

Row | SMILES | EC50 | pEC50
24 | CCCn1c(Nc2nc3ccccc3n2C)nc2ccccc21 | > 80 µM (inactive) | 
25 | Cc1nc(NC(=O)c2cc3c(C)nn(-c4ccccc4)c3s2)sc1C(=O)Nc1ccccc1 | 41.3 µM (inactive) | 
26 | O=CC1=C(c2ccccc2)Oc2ccccc2O1 | > 80 µM (inactive) | 
27 | CCCCCCCCCn1c2c(c(=N)c3c1CCC3)CCCC2 | 25.6 µM (inactive) | 
28 | COc1ccc(Cn2c(SCc3ccccc3C)nc3cc(OC)c(OC)cc3c2=N)cc1 |  | 4.81
29 | CCC(=O)Nc1ccc(-c2cc(-c3ccccc3)nc(-c3ccc(NC(=O)CC)cc3)n2)cc1 | > 80 µM (inactive) | 
30 | COc1ccccc1-c1cc(-c2ccccc2)nc(SC(C(N)=O)c2ccccc2)c1C#N (stereo not given) | 71.2 µM (inactive) | 
31 | C/C(CC(C)(C)C1CCCCC1)=N\NC(N)=S | > 80 µM (inactive) | 
32 | COc1ccc(-c2cc(C(F)F)n3ncc(C(=O)N4CCc5ccccc5C4)c3n2)cc1 | 28.6 µM (inactive) | 
33 | CC(C)CN=C(NS(=O)(=O)c1ccccc1)C(Cl)(Cl)Cl | > 80 µM (inactive) | 
34 | CCC(=O)Nc1cccc(C(=O)/C=C/c2ccc(F)cc2)c1 | > 80 µM (inactive) | 
35 | Cc1cccc2c1Sc1ccc(Cl)cc1CC2N1CCNCC1 (stereo not given) | > 80 µM (inactive) | 
36 | Cc1cnc(NC(=O)c2cc3c(C)nn(Cc4ccccc4Cl)c3s2)s1 | > 80 µM (inactive) | 
37 | CCOc1ccc(C(=O)Nc2ccc(NC(=O)c3ccco3)c(Cl)c2)cc1Cl | > 80 µM (inactive) | 
38 | NS(=O)(=O)c1ccc(N/N=C2/CCCCC2C2CCCCC2)c([N+](=O)[O-])c1 (stereo not given) | > 80 µM (inactive) | 
39 | O=C(Nc1nc(-c2ccc3ccccc3c2)cs1)c1ccc(N2C(=O)CCC2=O)cc1 | > 80 µM (inactive) | 
40 | Cc1ccc(NC(=O)COc2ccc(/C=C3/SC(=Nc4ccccc4)N(Cc4cccnc4)C3=O)cc2)cc1 | 34.4 µM (inactive) | 
41 | c1ccc(Oc2c3ccccc3nc3ccccc23)cc1 | > 80 µM (inactive) | 
42 | CC1CCCN(c2ccc(C(=O)NCc3cccs3)cn2)C1 (stereo not given) | > 80 µM (inactive) | 
43 | N/C(=N\c1nc(CSc2ccccn2)cc(=O)[nH]1)Nc1ccc(Cl)cc1Cl | > 80 µM (inactive) | 
44 | CCCCN1C(=O)C(=O)c2cc(Cl)ccc21 | 52.4 µM (inactive) | 
45 | CCc1ccc(-c2cc(C(F)(F)F)n3nc(C(=O)Nc4cnn(Cc5ccc(C)cc5)c4)cc3n2)s1 |  | 5.37
46 | CCN(CC)c1ccc(/C=C/[N+](=O)[O-])cc1 |  | 4.71

Row | SMILES | EC50 | pEC50
47 | O=C(c1ccc2c(c1)[nH]c(=S)n1c3ccccc3nc21)N1CCN(c2cccc(Cl)c2)CC1 | > 80 µM (inactive) | 
48 | N#C/C(=C\c1ccc(OCc2ccccc2)cc1)C(=O)Nc1nc2c(s1)CCN(Cc1ccccc1)C2 | > 80 µM (inactive) | 
49 | COc1ccc(S(=O)(=O)N2c3cc(Cl)ccc3Oc3nc4ccccc4nc32)cc1 | > 80 µM (inactive) | 
50 | COc1ccc(NC(=O)CSc2nc3ccc(Nc4nc(N5CCOCC5)nc(N5CCOCC5)n4)cc3s2)cc1 | > 80 µM (inactive) | 
51 | FC(F)(F)c1nnc2c(Sc3ccccc3)nc3ccc(Cl)cc3n12 | > 80 µM (inactive) | 
52 | COc1ccc(Cc2nnc(N/N=C/c3ccc(N(C)C)cc3)[nH]c2=O)cc1OC | 25.5 µM (inactive) | 
53 | c1ccc(N=Nc2ccc3cccccc2-3)cc1 | > 80 µM (inactive) | 
54 | Brc1ccc(-c2ccc(/C=N/Nc3nncc(-c4ccccc4)n3)o2)cc1 | 77.6 µM (inactive) | 
55 | COc1ccc2c(c1)NC(c1cc(Cl)cc(Cl)c1O)c1cccn1-2 (stereo not given) | 33.3 µM (inactive) | 
56 | COc1ccc(C(CCNCc2ccccc2)c2ccc(F)cc2)cc1 (stereo not given) |  | 4.97
57 | Cc1cccc(NC(=O)c2nc[nH]c2C(=O)Nc2ccccc2[N+](=O)[O-])c1 | > 80 µM (inactive) | 
58 | Cn1nnnc1Sc1ncnc2scc(-c3ccc(Cl)cc3)c12 | > 80 µM (inactive) | 
59 | CN(C)CCCn1cnc2c(c1=N)C(c1ccccc1)c1ccc3ccccc3c1O2 (stereo not given) | > 80 µM (inactive) | 
60 | Cc1ccc(O)c(NC(=S)NC(=O)Cc2ccc(Cl)cc2)c1 | 27.1 µM (inactive) | 
61 | COc1cc(/C=N/Nc2nc(Nc3ccc(C)cc3)nc(-n3nc(C)cc3C)n2)cc(OC)c1OC |  | 4.71
62 | CN(C)CCCN(C(=O)c1ccc(S(=O)(=O)N2CCc3ccccc3C2)cc1)c1nc2ccc(F)cc2s1 | > 80 µM (inactive) | 
63 | Cn1nnnc1Sc1ncnc2scc(-c3ccc(Br)cc3)c12 | > 80 µM (inactive) | 
64 | Cc1c(O)cc2c(c1O)C(=O)CC(c1ccccc1)O2 (stereo not given) |  | 4.97
65 | CCOc1ccc(NC(=S)NC(=O)/C=C/c2ccc(C)cc2)c([N+](=O)[O-])c1 | > 80 µM (inactive) | 
66 | COc1ccc2[nH]c3c(c2c1)CCN1C(=O)C(CC(=O)NC/C=C(\C)CCC=C(C)C)C[C@H](C(=O)N(C(C)C)C(C)C)[C@@]31C (stereo not given in full) | 60.1 µM (inactive) | 
67 | CCOc1cccc(C(=O)Nc2cccc(-c3nnc(-c4ccc(C)cc4)o3)c2)c1 | > 80 µM (inactive) | 
68 | O=C(Nc1ccc(O)c2c(=O)cc(-c3cccc(Cl)c3)oc12)c1cccc(Cl)c1 | 20.9 µM (inactive) | 
69 | O=c1cc(CN2CCN(c3ccccc3)CC2)c2cc(O)c(-c3ccccc3)cc2o1 | 27.4 µM (inactive) | 

Row | SMILES | EC50 | pEC50
70 | O=S(=O)(c1ccc2nc(-c3ccccc3)[nH]c2c1)N1CCN(c2ccc(Cl)cc2)CC1 | > 80 µM (inactive) | 
71 | CCC/C(=N/Nc1ccc(Cl)cc1)c1cnnc(-c2ccccc2)n1 | > 80 µM (inactive) | 
72 | CCCCOc1ccccc1NC(=O)Cn1c(-c2nonc2N)nc2ccccc21 | 22 µM (inactive) | 
73 | CCn1c(/C=C/c2c(C)[nH]c3ccccc23)nc2ccccc2c1=O | > 80 µM (inactive) | 
74 | CCC1(c2ccc(F)cc2)NC(=O)N(CC(=O)Nc2ccc(-c3nc4ccc(C)cc4s3)cc2)C1=O (stereo not given) | > 80 µM (inactive) | 
75 | Cc1cc(NC(=O)CSc2nc3sc(C)c(C)c3c(=O)n2C2CCCC2)no1 | > 80 µM (inactive) | 
76 | COc1ccc(OC)c(-c2nnc3n2N=C(c2ccc(OC)c(OCC4CC4)c2)CS3)c1 | > 80 µM (inactive) | 
77 | Cc1cc(NC(=O)CSc2nc3cc(Cl)ccc3c(=O)n2Cc2ccco2)no1 | > 80 µM (inactive) | 
78 | Cc1ccc(-c2[nH]ncc2/C=N/n2c(COc3ccccc3)nc3ccccc3c2=O)cc1 | > 80 µM (inactive) | 
79 | CCCCNc1c(-c2ccc(-c3ccc(C(C)=O)cc3)c(OC)c2)nc2cc(C)ccn12 | > 80 µM (inactive) | 
80 | CCCn1c(SCc2nc3sc(C)c(C)c3c(=O)[nH]2)nc2ccccc2c1=O | 72 µM (inactive) | 
81 | COc1ccc2cc3c(N)nn(C(=O)C4CCC(C(C)(C)C)CC4)c3nc2c1 (stereo not given) | > 80 µM (inactive) | 
82 | Cc1ccc(-c2cc(C(F)F)n3ncc(C(=O)N4CCc5ccccc54)c3n2)cc1 | 27.2 µM (inactive) | 
83 | Cc1ccc(S(=O)(=O)N(CC(=O)N/N=C/c2ccc(F)cc2)c2cccc3cccnc23)cc1 | > 80 µM (inactive) | 
84 | CCOC(=O)N1CCN(S(=O)(=O)c2ccc(C(=O)Nc3nc4c(s3)CC(C)CC4)cc2)CC1 (stereo not given) | > 80 µM (inactive) | 
85 | CCOC(=O)c1c(NC(=O)CSc2nnc3c(n2)[nH]c2ccc(F)cc23)sc(C(C)=O)c1C | 21.8 µM (inactive) | 
86 | COc1ccc(N=c2oc3ccc(OC)cc3cc2-c2nc3ccccc3[nH]2)cc1 |  | 4.82
87 | O=c1oc(CCCO)cc2ccc(/C=C/c3cccc([N+](=O)[O-])c3)cc12 | 36.8 µM (inactive) | 
88 | Cc1ccc(Cc2cnc(NC(=O)/C(C#N)=C/c3ccc(-c4ccc([N+](=O)[O-])cc4)o3)s2)cc1 |  | 5.01
89 | COc1cc(C(=O)Nc2cc(-c3nc4cc(C)ccc4o3)ccc2C)cc(OC)c1OC | > 80 µM (inactive) | 
90 | CN(C)CCOc1ccc(-c2c(-c3ccccc3)sc3ccccc23)cc1 | > 80 µM (inactive) | 
